# Measured values as given in patent US9096598B2 (Merck Sharp & Dohme Corp., priority 2011, dated 2015).
# Columns and labels:
# [1] = biological target: T1, JAK3 (Homo sapiens, UniProt P52333); experiment: Jak Biochemical HTRF Assay (JAK3); settings: recombinant purified GST-tagged catalytic domain, [ATP] 2.9 μM, values given as range classes
# T1 construct: recombinant purified GST-tagged catalytic domain for each enzyme; purchased Invitrogen M4290
# Procedure: (§1) Jak Biochemical HTRF Assay Protocol
# (§2) The ability of compounds to inhibit the activity of JAK1, JAK2, JAK3, and Tyk2 was measured using a recombinant purified GST-tagged catalytic domain for each enzyme (Invitrogen JAK1 #M4290, JAK2 #M4290, JAK3 #M4290, Tyk2 #M4290) in an HTRF format biochemical assay. The reactions employed a common peptide substrate, LCB-EQEDEPEGDYFEWLW-NH2 (in-house). The basic assay protocol is as follows: First, 250 nL of diluted compounds in DMSO were dispensed into the wells of a dry 384-well Black plate (Greiner #781076) using a Labcyte Echo 555 acoustic dispenser. Subsequent reagent additions employed an Agilent Bravo. Next, 18 μL of 1.11× enzyme and 1.11× substrate in 1× assay buffer (Invitrogen kinase buffer #PV3189, 2 mM DTT, 0.05% BSA) were added to the wells and shaken and then preincubated for 30 minutes at room temperature to allow compound binding to equilibrate. After equilibration, 2 μL of 10×ATP in 1× assay buffer was added to initiate the kinase reaction and the plates were shaken and then incubated at room temperature for 120 minutes. At the end of the incubation, 20 μL of 2× stop buffer (streptavidin-Dylight 650 (Thermo #84547B/100 mL), Eu-tagged pY20 antibody (Perkin Elmer #AD0067), EDTA, HEPES, and Triton) was added to quench the reaction. Plates were shaken and centrifuged and then incubated 60 minutes at room temperature and then read on a Perkin Elmer Envision (λex=337 nm, λem=665 and 615 nm, TRF delay time=20 μs). HTRF signal=10,000*665 nm reading/615 nm reading. After normalization to untreated controls, the percent inhibition of the HTRF signal at each compound concentration was calculated. The plot of percent inhibition versus the log of compound concentration was fit with a 4-parameter dose response equation to calculate IC50 values.
# (§3) Final reaction conditions were:
# (§4) Examples of the instant invention were evaluated in JAK2 and JAK3 in vitro binding assays. Table 13 tabulates the biological data disclosed for the instant invention as a range of JAK2 and JAK3 IC50 values (A: IC50≦10 nM; B: 10 nM>IC50≦500 nM C: IC50>500 nM).
# [2] = biological target: T2, JAK2 (Homo sapiens, UniProt O60674); experiment: Jak Biochemical HTRF Assay (JAK2); settings: recombinant purified GST-tagged catalytic domain, [ATP] 8.5 μM, values given as range classes
# T2 construct: recombinant purified GST-tagged catalytic domain for each enzyme; purchased Invitrogen M4290
# T2 sequence (O60674 849-1124 limits assumed): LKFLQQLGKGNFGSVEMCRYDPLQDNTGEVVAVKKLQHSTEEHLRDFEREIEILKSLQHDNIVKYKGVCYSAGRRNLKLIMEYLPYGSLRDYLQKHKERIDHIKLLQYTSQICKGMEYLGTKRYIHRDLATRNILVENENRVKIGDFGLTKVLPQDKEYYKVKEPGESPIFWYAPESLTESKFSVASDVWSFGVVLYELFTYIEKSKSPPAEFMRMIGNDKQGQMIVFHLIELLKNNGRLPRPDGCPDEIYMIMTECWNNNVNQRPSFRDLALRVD
# Procedure: as §1, §2, §3, §4
# T1 sequence (P52333 822-1111 limits assumed): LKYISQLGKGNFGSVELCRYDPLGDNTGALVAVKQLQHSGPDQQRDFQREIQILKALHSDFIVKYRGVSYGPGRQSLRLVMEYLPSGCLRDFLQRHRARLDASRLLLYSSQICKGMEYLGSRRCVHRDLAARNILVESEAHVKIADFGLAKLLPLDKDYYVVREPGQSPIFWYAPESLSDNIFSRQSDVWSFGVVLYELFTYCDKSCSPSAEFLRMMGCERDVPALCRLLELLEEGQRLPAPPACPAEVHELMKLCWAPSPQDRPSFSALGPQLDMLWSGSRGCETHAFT
Structure (SMILES),IC50 [1] [nM],IC50 [2] [nM]
"COc1cnc2[nH]cc(-c3cncc(N[C@H](C)C(=O)NCC(F)(F)F)c3)c2c1 [Example 1-31, N~2~-[5-(5-methoxy-1H-pyrrolo[2,3-b]pyridin-3-yl)pyridin-3-yl]-N-(2,2,2-trifluoroethyl)-D-alaninamide]",≤ 10,10 to 500
"CC(C)[C@H](Nc1cncc(-c2c[nH]c3ncc(OCc4ccccc4)cc23)c1)C(=O)NCC(F)(F)F [Example 2-4, N~2~-{5-[5-(benzyloxy)-1H-pyrrolo[2,3-b]pyridin-3-yl]pyridin-3-yl}-N-(2,2,2-trifluoroethyl)valinamide]",≤ 10,10 to 500
"CC(C)[C@@H](Nc1cncc(-c2c[nH]c3ncc(COCCN4CCN(C(=O)OC(C)(C)C)CC4)cc23)c1)C(=O)NCC(F)(F)F [Example 9-3, tert-butyl 4-[2-({3-[5-({(1R)-2-methyl-1-[(2,2,2-trifluoroethyl)carbamoyl]propyl}amino)pyridin-3-yl]-1H-pyrrolo[2,3-b]pyridin-5-yl}methoxy)ethyl]piper-azine-1-carboxylate]",≤ 10,10 to 500
"NC(=O)c1cnc2[nH]cc(-c3nncc(N[C@@H]4CCCC[C@@H]4C(=O)NCC(F)(F)F)n3)c2c1 [Example 1-23, 3-[5-({(1R,2S)-2-[(2,2,2-trifluoroethyl)carbamoyl]cyclo-hexyl}amino)-1,2,4-triazin-3-yl]-1H-pyrrolo[2,3-b]pyridine-5-carboxamide]",10 to 500,10 to 500
"CCOC(=O)Nc1cnc2[nH]cc(-c3cncc(NC(C(=O)NCC(F)(F)F)C(C)C)c3)c2c1 (stereo not drawn) [Example 7-2, ethyl {3-[5-({2-methyl-1-[(2,2,2-trifluoroethyl)carbamoyl]propyl}amino)pyridin-3-yl]-1H-pyrrolo[2,3-b]pyridin-5-yl}carbamate]",10 to 500,10 to 500
"CC(C)NC(=O)c1cnc2[nH]cc(-c3cncc(N[C@@H](C(=O)NCC(F)(F)F)C(C)C)c3)c2c1 [Example 3-2, N-(1-methylethyl)-3-[5-({(1R)-2-methyl-1-[(2,2,2-trifluoroethyl)carbamoyl]propyl}amino)pyridin-3-yl]-1H-pyrrolo[2,3-b]pyridine-5-carboxamide]",≤ 10,≤ 10
"Fc1cnc2[nH]cc(-c3nncc(N4CCCC4c4nccs4)n3)c2c1 (stereo not drawn) [Example 1-11, 5-fluoro-3-{5-[2-(1,3-thiazol-2-yl)pyrrolidin-1-yl]-1,2,4-triazin-3-yl}-1H-pyrrolo[2,3-b]pyridine]",10 to 500,10 to 500
"Cc1ncoc1C(=O)NCc1cnc2[nH]cc(-c3cncc(N[C@H](C(=O)NCC(F)(F)F)C(C)C)c3)c2c1 [Example 10-7, N~2~-{5-[5-({[(4-methyl-1,3-oxazol-5-yl)carbonyl]amino}methyl)-1H-pyrrolo[2,3-b]pyridin-3-yl]pyridin-3-yl}-N-(2,2,2-trifluoroethyl)valinamide]",10 to 500,> 500
"CCC(=O)NCc1cnc2[nH]cc(-c3cncc(N[C@H](C(=O)NCC(F)(F)F)C(C)C)c3)c2c1 [Example 10-2, N~2~-(5-{5-[(propanoylamino)methyl]-1H-pyrrolo[2,3-b]pyridin-3-yl}pyridin-3-yl)-N-(2,2,2-trifluoroethyl)valinamide]",10 to 500,> 500
"CC(C(=O)NCC(F)(F)F)n1ccc2ncc(-c3c[nH]c4ncc(Cl)cc34)cc21 (stereo not drawn) [Example 1-35, 2-[6-(5-chloro-1H-pyrrolo[2,3-b]pyridin-3-yl)-1H-pyrrolo[3,2-b]pyridin-1-yl]-N-(2,2,2-trifluoroethyl)propanamide]",≤ 10,10 to 500
"CC1c2ncc(C(F)(F)F)n2CCN1c1cnnc(-c2c[nH]c3ncc(C(N)=O)cc23)n1 (stereo not drawn) [Example 1-15, 3-{5-[8-methyl-3-(trifluoromethyl)-5,6-dihydroimidazo[1,2-a]pyrazin-7(8H)-yl]-1,2,4-triazin-3-yl}-1H-pyrrolo[2,3-b]pyridine-5-carboxamide]",≤ 10,10 to 500
"CC(C)[C@@H](Nc1cnnc(-c2c[nH]c3ncc(F)cc23)n1)C(=O)NCC(F)(F)F [Example 1-16, N~2~-[3-(5-fluoro-1H-pyrrolo[2,3-b]pyridin-3-yl)-1,2,4-triazin-5-yl]-N-(2,2,2-trifluoroethyl)-D-valinamide]",≤ 10,10 to 500
"CNC(=O)c1cnc2[nH]cc(-c3cncc(N[C@@H](C(=O)NCC(F)(F)F)C(C)C)c3)c2c1 [Example 3-8, N-methyl-3-[5-({(1R)-2-methyl-1-[(2,2,2-trifluoroethyl)carbamoyl]propyl}amino)pyridin-3-yl]-1H-pyrrolo[2,3-b]pyridine-5-carboxamide]",≤ 10,10 to 500
"CC(C)(Nc1cncc(-c2c[nH]c3ncc(Cl)cc23)c1)C(=O)NCC(F)(F)F [Example 1-27, N~2~-[5-(5-chloro-1H-pyrrolo[2,3-b]pyridin-3-yl)pyridin-3-yl]-2-methyl-N-(2,2,2-trifluoroethyl)alaninamide]",≤ 10,10 to 500
"COc1cnc2[nH]cc(-c3nncc(N[C@@H](C(=O)NCC(F)(F)F)C(C)C)n3)c2c1 [Example 1-20, N~2~-[3-(5-methoxy-1H-pyrrolo[2,3-b]pylidin-3-yl)-1,2,4-triazin-5-yl]-N-(2,2,2-trifluoroethyl)-D-valinamide]",≤ 10,10 to 500
"CC(=O)NCc1cnc2[nH]cc(-c3cncc(N[C@H](C(=O)NCC(F)(F)F)C(C)C)c3)c2c1 [Example 10-5, N~2~-(5-{5-[(acetylamino)methyl]-1H-pyrrolo[2,3-b]pyridin-3-yl}pyridin-3-yl)-N-(2,2,2-trifluoroethyl)valinamide]",10 to 500,> 500
"COc1cnc2[nH]cc(-c3cncc(N[C@H](C(=O)NCC(F)(F)F)C(C)C)c3)c2c1 [Example 1-45, N~2~-[5-(5-methoxy-1H-pyrrolo[2,3-b]pyridin-3-yl)pyridin-3-yl]-N-(2,2,2-trifluoroethyl)valinamide]",≤ 10,10 to 500
"CC(C)[C@H](Nc1cncc(-c2c[nH]c3ncc(N)cc23)c1)C(=O)NCC(F)(F)F [Example 5-1, N^2-[5-(5-amino-1H-pyrrolo[2,3-b]pyridin-3-yl)pyridin-3-yl]-N-(2,2,2-trifluoroethyl)valinamide]",10 to 500,10 to 500
"CC(C)[C@@H](Nc1cncc(-c2c[nH]c3ncc(COC(C)(C)C)cc23)c1)C(=O)NCC(F)(F)F [Example 9-2, N~2~-{5-[5-(tert-butoxymethyl)-1H-pyrrolo[2,3-b]pyridin-3-yl]pyridin-3-yl}-N-(2,2,2-trifluoroethyl)-D-valinamide]",10 to 500,10 to 500
"COCc1cnc2[nH]cc(-c3cncc(N[C@@H](C(=O)NCC(F)(F)F)C(C)C)c3)c2c1 [Example 9-9, N~2~-{5-[5-(methoxymethyl)-1H-pyrrolo[2,3-b]pyridin-3-yl]pyridin-3-yl}-N-(2,2,2-trifluoroethyl)-D-valinamide]",≤ 10,10 to 500
"CC(C)[C@H](Nc1cncc(-c2c[nH]c3ncc(OCCN4CCCC4=O)cc23)c1)C(=O)NCC(F)(F)F [Example 2-10, N~2~-(5-{5-[2-(2-oxopyrrolidin-1-yl)ethoxy]-1H-pyrrolo[2,3-b]pyridin-3-yl}pyridin-3-yl)-N-(2,2,2-trifluoroethyl)valinamide]",≤ 10,10 to 500
"CC(C)(Nc1cnnc(-c2c[nH]c3ncc(C#N)cc23)n1)C(=O)NCC(F)(F)F [Example 1-7, N~2~-[3-(5-cyano-1H-pyrrolo[2,3-b]pyridin-3-yl)-1,2,4-triazin-5-yl]-2-methyl-N-(2,2,2-trifluoroethyl)alaninamide]",≤ 10,10 to 500
"CC(C)C(Nc1cncc(-c2c[nH]c3ncc(NC(=O)N[C@@H](C)C(=O)O)cc23)c1)C(=O)NCC(F)(F)F (stereo partly drawn) [Example 6-4, N-({3-[5-({2-methyl-1-[(2,2,2-trifluoroethyl)carbamoyl]propyl}amino)pyridin-3-yl]-1H-pyrrolo[2,3-b]pyridin-5-yl}carbamoyl)alanine]",≤ 10,10 to 500
"C/C=C/C(=O)NCc1cnc2[nH]cc(-c3cncc(N[C@H](C(=O)NCC(F)(F)F)C(C)C)c3)c2c1 [Example 10-4, N~2~-[5-(5-{[(2E)-but-2-enoylamino]methyl}-1H-pyrrolo[2,3-b]pyridin-3-yl)pyridin-3-yl]-N-(2,2,2-trifluoroethyl)valinamide]",≤ 10,10 to 500
